Source: patent publication US11702422B2, “Imidazopyridazines as modulators of IL-17” (Janssen Pharmaceutica NV, priority 2020, dated 2023)

Experiments:
[1] = molecular target: IL-17A(FLAG-Tagged): IL-17RA(His-Tagged) (Homo sapiens, UniProt Q16552, K93Q); test: IL-17A(FLAG-Tagged): IL-17RA(His-Tagged) Binding Disruption Eu-HTRF Assay; conditions: IL-17A/IL-17RA binding disruption, simple average if tested more than once
Summary of the method: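 IC50 comes from a one-site competition fit of the HTRF 665/620 nm ratio. Compound dilutions (2-fold, 22 points) were held 1 h rt with FLAG-tagged IL-17A dimer, then His-tagged IL-17RA plus Eu-cryptate anti-FLAG and D2 anti-His antibodies were added for 2 h rt.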

[2] = test system: IL-17A-induced G-CSF production in human normal keratinocyte (NHK); test: NHK Assay: IL-17A-induced G-CSF production in human normal keratinocytes; assay type: cell-based; conditions: 24 h, adult normal human keratinocytes, IL-17A 5 ng/mL, simple average if tested more than once
Summary of the method: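 G-CSF released by primary adult human keratinocytes after 24 h at 37° C was quantified by HTRF via standard curve to give IC50. Stimulus was 5 ng/mL IL-17A pre-mixed 1 h at rt with compound dilutions, in 5% FBS and 0.2% DMSO. Cell viability was assessed in parallel with CellTiter-Glo.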

Chain of UniProt Q16552 (Q16552 with tags, fused parts or gaps K93Q): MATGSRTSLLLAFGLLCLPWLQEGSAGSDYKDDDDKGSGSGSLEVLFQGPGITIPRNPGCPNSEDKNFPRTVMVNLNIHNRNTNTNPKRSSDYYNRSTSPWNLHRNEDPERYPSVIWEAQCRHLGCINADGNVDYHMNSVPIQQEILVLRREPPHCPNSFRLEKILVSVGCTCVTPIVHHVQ

Structure (SMILES)	IC50 [1] [nM]	IC50 ([2]; Homo sapiens, Keratinocyte) [nM]	IC50 [2] [nM]
CC(C)n1nccc1C(=O)N[C@H](c1cn2ncc([C@H](NC(=O)CC3CCCC3(F)F)C3CC3)cc2n1)C1CCC(F)(F)CC1 (stereo partly drawn) [Example 275, N-((1S)-(7-((1R)-Cyclopropyl(2-(2,2-difluorocyclopentyl)acetamido)methyl)imidazo[1,2-b]pyridazin-2-yl)(4,4-difluorocyclohexyl)methyl)-1-isopropyl-1H-pyrazole-5-carboxamide]	170	150	–
Cc1nonc1C(=O)N[C@H](c1cn2ncc([C@H](NC(=O)COC3CC(F)(F)C3)C3CC3)cc2n1)C1CCC(F)(F)CC1 [Example 308, N—((S)-(7-((R)-Cyclopropyl(2-(3,3-difluorocyclobutoxy)acetamido)methyl)imidazo[1,2-b]pyridazin-2-yl)(4,4-difluorocyclohexyl)methyl)-4-methyl-1,2,5-oxadiazole-3-carboxamide]	200	1700	–
[2H]C([2H])([2H])C([2H])([2H])n1nccc1C(=O)N[C@H](c1cn2ncc([C@H](NC(=O)C[C@@H](C)C(F)(F)F)C3CCC3)cc2n1)C1CCC(F)(F)CC1 (relative stereo) [Example 501, N—((S)-(7-((R*)-Cyclobutyl((R*)-4,4,4-trifluoro-3-methylbutanamido)methyl)imidazo[1,2-b]pyridazin-2-yl)(4,4-difluorocyclohexyl)methyl)-1-(ethyl-d5)-1H-pyrazole-5-carboxamide]	120	95	–
CC(C)(C)[C@@H](O)C(=O)NC(c1cnn2cc([C@@H](NC(=O)c3cnn(CC4CC4)n3)C3CCC(F)(F)CC3)nc2c1)C1CC1 (single isomer, unassigned) [Example 29, N—((S)-(7-((R*)-Cyclopropyl((R)-2-hydroxy-3,3-dimethylbutanamido)methyl)imidazo[1,2-b]pyridazin-2-yl)(4,4-difluorocyclohexyl)methyl)-2-(cyclopropylmethyl)-2H-1,2,3-triazole-4-carboxamide]	46	370	–
CC(C)C(NC(=O)CCC(F)(F)F)c1cnn2cc([C@@H](NC(=O)c3ccnn3C(C)C)C3CCC(F)(F)CC3)nc2c1 (single isomer, unassigned) [Example 154, N—((S)-(4,4-Difluorocyclohexyl)(7-((R*)-2-methyl-1-(4,4,4-trifluorobutanamido)propyl)imidazo[1,2-b]pyridazin-2-yl)methyl)-1-isopropyl-1H-pyrazole-5-carboxamide]	430	–	640
CCC(CC(=O)N[C@@H](c1cnn2cc([C@@H](NC(=O)c3nonc3C)C3CCC(F)(F)CC3)nc2c1)C1CC1)CC(F)(F)F (single isomer, unassigned) [Example 342, N—((S)-(7-((R)-Cyclopropyl((R*)-3-ethyl-5,5,5-trifluoropentanamido)methyl)imidazo[1,2-b]pyridazin-2-yl)(4,4-difluorocyclohexyl)methyl)-4-methyl-1,2,5-oxadiazole-3-carboxamide]	340	–	1400
CCc1cncc(C(=O)N[C@H](c2cn3ncc([C@H](NC(=O)CCC(F)(F)F)C4CC4)cc3n2)C2CCC(F)(F)CC2)c1 [Example 452, N—((S)-(7-((R)-Cyclopropyl(4,4,4-trifluorobutanamido)methyl)imidazo[1,2-b]pyridazin-2-yl)(4,4-difluorocyclohexyl)methyl)-5-ethylnicotinamide]	100	570	–
CC(C)C(NC(=O)CC1CC(F)(F)C1)c1cnn2cc([C@@H](NC(=O)c3nonc3OCC(F)F)C3CCC(F)(F)CC3)nc2c1 (stereo in doubt) [Example 514, N—((S)-(7-((S*)-1-(2-(3,3-Difluorocyclobutyl)acetamido)-2-methylpropyl)imidazo[1,2-b]pyridazin-2-yl)(4,4-difluorocyclohexyl)methyl)-4-(2,2-difluoroethoxy)-1,2,5-oxadiazole-3-carboxamide]	87	42	–
O=C(CCC(F)(F)F)N[C@@H](c1cnn2cc([C@@H](NC(=O)c3cnnn3CCCF)C3CCC(F)(F)CC3)nc2c1)C1CC1 [Example 112, N—((S)-(7-((R)-Cyclopropyl(4,4,4-trifluorobutanamido)methyl)imidazo[1,2-b]pyridazin-2-yl)(4,4-difluorocyclohexyl)methyl)-1-(3-fluoropropyl)-1H-1,2,3-triazole-5-carboxamide]	120	160	–
CC(C)c1cncc(C(=O)N[C@H](c2cn3ncc([C@H](NC(=O)CCC(F)(F)F)C4CC4)cc3n2)C2CCC(F)(F)CC2)c1 [Example 415, N—((S)-(7-((R)-Cyclopropyl(4,4,4-trifluorobutanamido)methyl)imidazo[1,2-b]pyridazin-2-yl)(4,4-difluorocyclohexyl)methyl)-5-isopropylnicotinamide]	73	500	–
O=C(CCC(F)(F)F)N[C@@H](c1cnn2cc([C@@H](NC(=O)[C@@H]3C(F)(F)C34CCC4)C3CCC(F)(F)CC3)nc2c1)C1CC1 (relative stereo) [Example 369, (R*)—N—((S)-(7-((R*)-Cyclopropyl(4,4,4-trifluorobutanamido)methyl)imidazo[1,2-b]pyridazin-2-yl)(4,4-difluorocyclohexyl)methyl)-2,2-difluorospiro[2.3]hexane-1-carboxamide]	140	530	–
N#Cc1ccncc1C(=O)N[C@H](c1cn2ncc([C@H](NC(=O)CCC(F)(F)F)C3CC3)cc2n1)C1CCC(F)(F)CC1 [Example 225, 4-Cyano-N—((S)-(7-((R)-cyclopropyl(4,4,4-trifluorobutanamido)methyl)imidazo[1,2-b]pyridazin-2-yl)(4,4-difluorocyclohexyl)methyl)nicotinamide]	9500	> 20000	–
CC(C)n1nccc1C(=O)N[C@H](c1cn2ncc([C@H](NC(=O)COC3CC(F)(F)C3)C3CC3)cc2n1)C1CCC(F)(F)CC1 [Example 309, N—((S)-(7-((R)-Cyclopropyl(2-(3,3-difluorocyclobutoxy)acetamido)methyl)imidazo[1,2-b]pyridazin-2-yl)(4,4-difluorocyclohexyl)methyl)-1-isopropyl-1H-pyrazole-5-carboxamide]	100	290	–
CC(C)n1nccc1C(=O)N[C@H](c1cn2ncc(C(NC(=O)CC3CC(F)(F)C3)C3(C#N)CC3)cc2n1)C1CCC(F)(F)CC1 (single isomer, unassigned) [Example 431, N—((S)-(7-((R*)-(1-Cyanocyclopropyl)(2-(3,3-difluorocyclobutyl)acetamido)methyl)imidazo[1,2-b]pyridazin-2-yl)(4,4-difluorocyclohexyl)methyl)-1-isopropyl-1H-pyrazole-5-carboxamide]	3800	–	> 20000
[2H]C([2H])([2H])C([2H])([2H])n1nccc1C(=O)N[C@H](c1cn2ncc(C(COCC)NC(=O)CC3CC(F)(F)C3)cc2n1)C1CCC(F)(F)CC1 (single isomer, unassigned) [Example 530, N—((S)-(7-((R*)-1-(2-(3,3-Difluorocyclobutyl)acetamido)-2-ethoxyethyl)imidazo[1,2-b]pyridazin-2-yl)(4,4-difluorocyclohexyl)methyl)-1-(ethyl-d5)-1H-pyrazole-5-carboxamide]	980	–	4600
O=C(CCC(F)(F)F)N[C@@H](c1cnn2cc([C@@H](NC(=O)c3ccc(F)cc3)C3CCC(F)(F)CC3)nc2c1)C1CC1 [Example 182, N—((S)-(7-((R)-Cyclopropyl(4,4,4-trifluorobutanamido)methyl)imidazo[1,2-b]pyridazin-2-yl)(4,4-difluorocyclohexyl)methyl)-4-fluorobenzamide]	85	510	–
CC(C)n1nccc1C(=O)N[C@H](c1cn2ncc(C(NC(=O)CC(C(F)(F)F)C(F)(F)F)C3CC3)cc2n1)C1CCC(F)(F)CC1 (single isomer, unassigned) [Example 11, N-((S)-(7-((S*)-Cyclopropyl(4,4,4-trifluoro-3-(trifluoromethyl)butanamido)methyl)imidazo[1,2-b]pyridazin-2-yl)(4,4-difluorocyclohexyl)methyl)-1-isopropyl-1H-pyrazole-5-carboxamide]	690	–	1400
O=C(CC1CC(F)(F)C1)N[C@@H](c1cnn2cc([C@@H](NC(=O)c3conc3COC(F)F)C3CCC(F)(F)CC3)nc2c1)C1CC1 [Example 294, N—((S)-(7-((R)-Cyclopropyl(2-(3,3-difluorocyclobutyl)acetamido)methyl)imidazo[1,2-b]pyridazin-2-yl)(4,4-difluorocyclohexyl)methyl)-3-((difluoromethoxy)methyl)isoxazole-4-carboxamide]	86	38	–
CC(C)n1nccc1C(=O)N[C@H](c1cn2ncc([C@H](NC(=O)COC(F)F)C3CC3)cc2n1)C1CCC(F)(F)CC1 [Example 274, N—((S)-(7-((R)-Cyclopropyl(2-(difluoromethoxy)acetamido)methyl)imidazo[1,2-b]pyridazin-2-yl)(4,4-difluorocyclohexyl)methyl)-1-isopropyl-1H-pyrazole-5-carboxamide]	330	950	–
O=C(CCC(F)(F)F)N[C@@H](c1cnn2cc([C@@H](NC(=O)c3cncnc3)C3CCC(F)(F)CC3)nc2c1)C1CC1 [Example 204, N—((S)-(7-((R)-Cyclopropyl(4,4,4-trifluorobutanamido)methyl)imidazo[1,2-b]pyridazin-2-1)(4,4-difluorocyclohexyl)methyl)pyrimidine-5-carboxamide]	320	3300	–
